Here are results for two molecules from EP4810052A2, “HCRHR2 SELECTIVE POLYPEPTIDES” (Gubra A/S, priority 2023, dated 2026).

The term bioavailability denotes the share of a dose that reaches the circulation, judged against a reference dose that is usually intravenous. As a reminder, the clearance is the rate of elimination divided by the concentration. As a reminder, the Cmax is the highest concentration seen after dosing. One may read the Tmax as the time from dosing to the highest level.

Data set [1] can be described thus: Effect on acute food intake in mice. The class given is in vivo. The conditions noted are these: single subcutaneous dose. The gist of the method: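 Male NMRI mice (n=7-8 per group) were fasted from six hours before the dark phase. They received a single subcutaneous peptide dose one hour before dark onset. Hourly food intake was monitored for 72 h and expressed as percent reduction versus vehicle, analysed by one-way ANOVA with Dunnett's test.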

A further data set in a line: PK in mice. In kind it is in vivo. Further details: T½ / MRT: unit: h. The conditions noted are these: for MRT / T½ / clearance / half-life / Cmax / Tmax: Mouse; for bioavailability / clearance / half-life / Cmax / Tmax: male, in vivo; for bioavailability: NMRI, mouse; for clearance / half-life / Cmax / Tmax: NMRI/RjHan; for half-life: read-out: T½ (converted). The protocol: Lean male NMRI/RjHan mice were obtained from JanVier (JanVier Labs, France) at 6 weeks of age. The animals were single housed under a 12/12 h dark-light cycle, light off at 3 PM. Room temperature was controlled to 22°C ± 1°C, with 60 % ± 20% humidity. Animals had ad libitum access to regular rodent chow (Altromin 1324, Brogaarden, Denmark) and tap water.
After 2 weeks of acclimatization, the animals were randomized into treatment groups (n=9 per group) based on body weight. Animals were dosed IV with one peptide and SC with another peptide (15 or 50 nmol/kg) Plasma samples were collected for PK analysis at times 0.17, 1, 3, 6, 24, 30, 48, 72 and 96 hours post dosing in a sparse sampling design with 3 mice per group per timepoint. Plasma samples were analyzed using LC-MSMS and PK parameters were estimated by Non-Compartmental Analysis (NCA).

A short description of a further data set: PK in minipigs. The conditions noted are these: male, Göttingen, minipig, in vivo; for half-life: iv, 6.0 nmol/kg i.v., read-out: T½ (converted). How it is done: Pharmacokinetics studies were determined in male Göttingen minipigs from Ellegaard Göttingen Minipigs A/S. Animals were acclimatised for at least 7 days before placed on study. The minipigs had prior to study been surgically implanted with central venous catheters inserted which were used for blood sampling. Animals were housed under a 12/12 h dark-light cycle with ad libitum access to domestic water and animals were fed a commercially standard maintenance diet twice daily.
Test compounds where administrated either as a cassette or as a single compound. Test compounds were administrated by a single intravenous injection or short infusion (5-10 min) through the implanted catheter or a single subcutaneously injection. The subcutaneously injection was given in the mid neck between ear and scapula with a stopper on the needle, allowing 0.5 cm of the needle to be inserted.Plasma concentration-time profiles employing 12-16 sampling points were obtained from each animal. As an example, blood samples were collected on the following times: 0 (predose), 0.17, 0.33, 0.5, 1, 2, 5, 6, 24, 48, 72, 92, 168, 240 and 336 hrs post administration. Approximately 2 mL blood was drawn from the central catheter from each animal at each sampling point. Blood samples were taken in K2 or K3 EDTA tubes. Blood was kept on ice for maximum 30 min before centrifugation (10 min, 4°C, 2000 x g). Approximately 200 µL plasma samples was transferred to a Micronic tube and stored at -20° or lower.
Pharmacokinetics parameters were calculated by non-compartmental analysis (NCA) of the individual plasma concentrations-time profile from the animals. The log-linear trapezoidal method was used for estimation of AUC and AUMC. The terminal T½ was determined as In(2)/λz where λz is the first order rate constant as determined by the terminal log-linear part of the curve.
Plasma concentrations were measured by LC-MSMS using electrospray ionization and multiple reaction monitoring. Calibration standards and quality control (QC) samples were prepared in specie match matrix. 15 µL calibration standards, QC and study samples were extracted by protein precipitation using 60 µL methanol followed by addition of 45 µL milliQ water. Samples were shaken (800 rpm) at room temperature for 5 min before centrifugation (2570×g, 40 min, 4°C) and the supernatant was transferred to a LoBind PCR plate. Samples were analysed on a Thermo Triscend UHPLC system coupled to a Sciex API 6500+ mass spectrometer. Samples were subject to online SPE clean-up on a HLB column (1×50 mm, Waters) before loaded onto a Aeris Peptide XB C18 column (3.6 µm, 100 Å, 2×50 mm, Phenomenex) analytical column. The mobile phases consisted of acetonitrile and milliQ H2O both containing 0.1% V/V formic acid. The flow rate was 0.60 mL/min and the column was kept at room temperature.

The nature of data set [2]: Chemical stability of purified peptides (RP-UHPLC main peak purity loss). In kind it is physicochemical. The gist of the method:
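Peptides at about 1.0 mg/ml in 50 mM phosphate buffer pH 7.5, or pH-adjusted for the pH series, were incubated at 40 °C for 14 and 28 days. Main-peak purity was taken as main-peak area over total area by RP-UHPLC (UV 215 nm, C8, 50 °C). Purity loss was calculated versus T0.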

Where [3] appears, read: pH 7.5, 40°C, 14 days, first value of cell.
Where [4] appears, read: pH 7.5, 40°C, 28 days, second value of cell.

Each structure is given as a SMILES string. Marks after values point to notes of the source that are not given here. Starred links: 1 amine or outer side, 2 acyl side, 3 side chain; linkers in the order of their positions; H or OH if unused. Non-standard residues stand in square brackets, D forms with d. Residues, ends and D or L forms follow the SMILES beside them. Groups on a side chain read outwards from the residue. *: point of attachment. C20 diacid = O=C(O)CCCCCCCCCCCCCCCCCCC(=O)*; γGlu = O=C(O)[C@H](CCC(=O)[*:2])N[*:1]; NMeI = CC[C@H](C)[C@H](NC)C(=O)O; AEEA = NCCOCCOCC(=O)O

Take `CC[C@H](C)[C@H](NC)C(=O)N[C@H](C(=O)N[C@@H](CC(C)C)C(=O)N[C@@H](CO)C(=O)N[C@@H](CC(C)C)C(=O)N[C@@H](CC(=O)O)C(=O)N[C@H](C(=O)N1CCC[C@H]1C(=O)N[C@H](C(=O)NCC(=O)N[C@@H](CC(C)C)C(=O)N[C@@H](CC(C)C)C(=O)N[C@@H](CCC(N)=O)C(=O)N[C@H](C(=O)N[C@@H](CC(C)C)C(=O)N[C@@H](CC(C)C)C(=O)N[C@@H](CCC(=O)O)C(=O)N[C@@H](CCC(N)=O)C(=O)N[C@@H](C)C(=O)N[C@@H](CCCNC(=N)N)C(=O)N[C@@H](C)C(=O)N[C@@H](CCCNC(=N)N)C(=O)N[C@@H](C)C(=O)N[C@@H](C)C(=O)N[C@@H](CCCNC(=N)N)C(=O)N[C@@H](CCC(=O)O)C(=O)N[C@@H](CCC(N)=O)C(=O)N[C@@H](C)C(=O)N[C@H](C(=O)N[C@@H](CCCCNC(=O)COCCOCCNC(=O)COCCOCCNC(=O)CC[C@H](NC(=O)CC[C@H](NC(=O)CCCCCCCCCCCCCCCCCCC(=O)O)C(=O)O)C(=O)O)C(=O)N[C@@H](CC(N)=O)C(=O)N[C@@H](C)C(=O)N[C@@H](CCC(=O)O)C(=O)N[C@H](C(=O)N[C@@H](CC(C)C)C(=O)N[C@@H](C)C(=O)N[C@@H](CCC(=O)O)C(=O)N[C@H](C(N)=O)C(C)C)[C@@H](C)CC)[C@@H](C)O)[C@@H](C)CC)[C@@H](C)CC)C(C)C)C(C)C` [SEQ ID NO: 6] (H-[NMeI]VLSLDVPIGLLQILLEQARARAAREQATK([AEEA-AEEA-γGlu-γGlu-C20 diacid])NAEILAEV-NH2): the results for the “% FI compared to vehicle, 24 h post-dosing” value in data set [1] (30 nmol/kg), in data set [1] (100 nmol/kg) and in data set [1] (300 nmol/kg) were 51.61*** %, 25.76*** % and 12.69*** %, respectively. The same molecule gave an MRT in “PK in mice” of 16. Moreover, the T½ in the data set “PK in mice” turned out to be 14.7. This molecule also displayed a bioavailability in “PK in mice” (sc) of 78%. In addition, the clearance in the data set “PK in mice” (iv, 15 nmol/kg i.v.) was 3.3 mL/h/kg. Moreover, the half-life is 14.7 h in the data set “PK in mice” (iv, 15 nmol/kg i.v.); 16 h in the data set “PK in mice” (sc, 15 nmol/kg s.c.); 145 h in the data set “PK in minipigs” (Pig). In “PK in mice” (sc, 15 nmol/kg s.c.), this molecule had a Cmax of 90 nM. For the same molecule, the Tmax in “PK in mice” (sc, 15 nmol/kg s.c.) stood at 24 h. For the same molecule, the “Purity loss (RP-UPLC analysis) T14-T0 (%)” value in data set [2] (pH 7.0, 40°C, 14 days) was -1.8%; in data set [2] (pH 7.5, 40°C, 14 days), -1.1%; in data set [2] (pH 8.0, 40°C, 14 days), -3.1%. In addition, the “Purity loss (RP-UPLC analysis) T28-T0 (%)” value in data set [2] (pH 7.0, 40°C, 28 days) was -2.0%; in data set [2] (pH 7.5, 40°C, 28 days), -2.6%; in data set [2] (pH 8.0, 40°C, 28 days) it was -7.1%. Besides, the “Chemical stability at pH 7.5 after 14 days at 40°C (% degradation)” value in data set [2] (setting [3]) is -1.0%. Moreover, the “Chemical stability at pH 7.5 after 28 days at 40°C (% degradation)” value in data set [2] (setting [4]) is -3.5%.
For `CC[C@H](C)[C@H](N)C(=O)N[C@H](C(=O)N[C@@H](CC(C)C)C(=O)N[C@@H](CO)C(=O)N[C@@H](CC(C)C)C(=O)N[C@@H](CC(=O)O)C(=O)N[C@H](C(=O)N1CCC[C@H]1C(=O)N[C@H](C(=O)NCC(=O)N[C@@H](CC(C)C)C(=O)N[C@@H](CC(C)C)C(=O)N[C@@H](CCC(N)=O)C(=O)N[C@H](C(=O)N[C@@H](CC(C)C)C(=O)N[C@@H](CC(C)C)C(=O)N[C@@H](CCC(=O)O)C(=O)N[C@@H](CCC(N)=O)C(=O)N[C@@H](C)C(=O)N[C@@H](CCCNC(=N)N)C(=O)N[C@@H](C)C(=O)N[C@@H](CCCNC(=N)N)C(=O)N[C@@H](C)C(=O)N[C@@H](C)C(=O)N[C@@H](CCCNC(=N)N)C(=O)N[C@@H](CCC(=O)O)C(=O)N[C@@H](CCC(N)=O)C(=O)N[C@@H](C)C(=O)N[C@@H](CCCCNC(=O)COCCOCCNC(=O)COCCOCCNC(=O)CC[C@H](NC(=O)CC[C@H](NC(=O)CCCCCCCCCCCCCCCCCCC(=O)O)C(=O)O)C(=O)O)C(=O)N[C@H](C(=O)N[C@@H](CC(N)=O)C(=O)N[C@@H](C)C(=O)N[C@@H](CCC(=O)O)C(=O)N[C@H](C(=O)N[C@@H](CC(C)C)C(=O)N[C@@H](C)C(=O)N[C@@H](CCC(=O)O)C(=O)N[C@H](C(N)=O)C(C)C)[C@@H](C)CC)[C@@H](C)O)[C@@H](C)CC)[C@@H](C)CC)C(C)C)C(C)C` [SEQ ID NO: 3] (H-IVLSLDVPIGLLQILLEQARARAAREQAK([AEEA-AEEA-γGlu-γGlu-C20 diacid])TNAEILAEV-NH2), the figures for the “% FI compared to vehicle, 24 h post-dosing” value in data set [1] (30 nmol/kg), in data set [1] (100 nmol/kg) and in data set [1] (300 nmol/kg) were 67.63*** %, 30.75*** % and 30.66*** %, respectively. The MRT in the data set “PK in mice” is recorded as 17.5. The same molecule gave a T½ in “PK in mice” of 13.5. Besides, the bioavailability in “PK in mice” (sc) worked out at 43.1%; in “PK in minipigs” (sc), 55%. Further, the clearance in “PK in mice” (iv, 50 nmol/kg i.v.) is under 10 mL/h/kg. In addition, the half-life in “PK in mice” (iv, 50 nmol/kg i.v.) is 13.5 h; in “PK in mice” (sc, 50 nmol/kg s.c.), 11.4 h; in the data set “PK in minipigs” (Pig), 156 h. Further, the maximum concentration (Cmax) stood at 141 nM in the data set “PK in mice” (sc, 50 nmol/kg s.c.) and 60 nM in the data set “PK in minipigs” (sc, Pig, 6.0 nmol/kg s.c). Also, the Tmax was 24 h in the data set “PK in mice” (sc, 50 nmol/kg s.c.) and 24 h in “PK in minipigs” (sc, Pig, 6.0 nmol/kg s.c). In addition, the “Chemical stability at pH 7.5 after 14 days at 40°C (% degradation)” value in data set [2] (setting [3]) was -6.1%; in data set [2] (pH 7.5, 14 days, 40°C), -6.1%. Besides, the “Chemical stability at pH 7.5 after 28 days at 40°C (% degradation)” value in data set [2] (setting [4]) is recorded as -15%; in data set [2] (pH 7.5, 28 days, 40°C), -15%.
